Measurements reported in patent publication US20240417370A1, “LIPIDS FOR USE IN LIPID NANOPARTICLE FORMULATIONS” (Acuitas Therapeutics, Inc., priority 2023, published 2024).

Tested on: human IgG in mouse serum
Assay: Immunoglobulin G (IgG) mRNA in vivo evaluation using lipid nanoparticle compositions
Design: species or system mice
Details: LNP-formulated lipid, tail vein injection, μg IgG/mL serum 24 hours after administration; for Serum IgG @ 0.3 mg/kg: 0.3 mg mRNA/kg; for Serum IgG @ 1.0 mg/kg: 1.0 mg mRNA/kg
Method: A lipid of structure (I), DSPC, cholesterol and PEG-lipid are solubilized in ethanol at a molar ratio of 50:10:38.5:1.5 or 47.5:10:40.7:1.8. Lipid nanoparticles (LNP) are prepared at a total lipid to mRNA weight ratio of approximately 10:1 to 40:1. Briefly, the mRNA is diluted to 0.2 mg/mL in 10 to 50 mM citrate buffer, pH 4 to 6 or 10 to 25 mM acetate buffer, pH 4 to 6. Syringe pumps are used to mix the ethanolic lipid solution with the mRNA aqueous solution at a ratio of about 1:5 to 1:3 (vol/vol) with total flow rates above 15 mL/min. The ethanol is then removed, and the external buffer replaced with PBS by dialysis. Finally, the lipid nanoparticles are filtered through a 0.2 µm pore sterile filter.
Studies are performed in 6-8-week-old CD-1/ICR mice (Envigo, Charles River, or Inotiv) according to guidelines established by an institutional animal care committee (ACC) and the Canadian Council on Animal Care (CCAC). Varying doses of mRNA-lipid nanoparticle are systemically administered by tail vein injection and animals euthanized at a specific time point (e.g., 24 hours) post-administration. The whole blood is collected, and the serum subsequentially separated by centrifuging the tubes of the whole blood at 2000×g for 10 minutes at 4° C. and stored at −80° C. until use for analysis.
For immunoglobulin G (IgG) ELISA (Life Diagnostics Human IgG ELISA kit), the serum samples are diluted at 100 to 20,000 folds with 1× diluent solution. 100 μL of diluted serum is dispensed into anti-human IgG coated 96-well plate in duplicate alongside human IgG standards and incubated in a plate shaker at 150 rpm at 25° C. for 45 minutes. The wells are washed 5 times with 1× wash solution using a plate washer (400 μL/well). 100 μL of HRP conjugate is added into each well and incubated in a plate shaker at the same condition above. The wells are washed 5 times again with 1× wash solution using a plate washer (400 μL/well). 100 μL of TMB reagent is added into each well and incubated in a plate shaker at the same condition above. The reaction is stopped by adding 100 μL of Stop solution to each well. The absorbance is read at 450 nm (A450) with a microplate reader. The amount of human IgG in mouse serum is determined by plotting A450 values for the assay standard against human IgG concentration.
Representative compounds of the disclosure shown in Table 2 were formulated using the following molar ratio: 50% cationic lipid/10% distearoylphosphatidylcholine (DSPC)/38.5% Cholesterol/1.5% PEG lipid 2-[2-(ω-methoxy(polyethyleneglycol2000)ethoxy]-N,N-ditetradecylacetamide) or 47.5% cationic lipid/10% DSPC/40.7% Cholesterol/1.8% PEG lipid. Relative activity was determined by measuring luciferase expression in the liver 4 hours following administration via tail vein injection as described in Example 1 or by measuring the amount of human IgG in mouse serum as described in example 2. The activity was compared at a dose of 1.0 or 0.5 or 0.3 mg mRNA/kg and expressed as ng luciferase/g liver measured 4 hours after administration, as described in Example 1 or as μg IgG/mL serum measured 24 hours after administration, as described in Example 2. Compound numbers in Table 2 refer to the compound numbers of Table 1.

SMILES | Serum IgG @ 0.3 mg/kg [µg/mL] | Serum IgG @ 1.0 mg/kg [µg/mL]
CCCCCCCCCCN(CCCCCCCCCC)C(=O)CCCCCCCN(CCCCCCCC(=O)N(CCCCCCCCCC)CCCCCCCCCC)C[C@H]1C[C@@H]1CO (racemic) [(rac)-(1RS, 2RS) I-45, 8,8′-((((1s,2s)-2-(hydroxymethyl)cyclopropyl)methyl)azanediyl)bis(N,N-didecyloctanamide)] | 10.95 ± 4.31 | –
CCCCCCCCCCN(CCCCCCCCCC)C(=O)CCCCCCCN(CCCCCCCC(=O)N(CCCCCCCCCC)CCCCCCCCCC)C1CCC[C@H]1O (mixture of isomers) [(rac)-(1RS, 2RS) I-48, 8,8′-(((1s,2s)-2-hydroxycyclopentyl)azanediyl)bis(N,N-didecyloctanamide)] | 32.85 ± 6.90 | 216.8 ± 46.48
CCCCCCCCCCN(CCCCCCCCCC)C(=O)CCCCCCCN(CCCCCCCC(=O)N(CCCCCCCCCC)CCCCCCCCCC)C[C@H]1C[C@H]1CO (racemic) [(rac)-(1RS, 2SR) I-45, 8,8′-((((1s,2r)-2-(hydroxymethyl)cyclopropyl)methyl)azanediyl)bis(N,N-didecyloctanamide)] | 15.84 ± 3.20 | –
CCCCCCCCCCN(CCCCCCCCCC)C(=O)CCCCCCCN(CCCCCCCC(=O)N(CCCCCCCCCC)CCCCCCCCCC)C1CCCC1O (racemic) [(rac)-(1RS, 2SR) I-48, 8,8′-(((1s,2r)-2-hydroxycyclopentyl)azanediyl)bis(N,N-didecyloctanamide)] | 43.32 ± 11.04 | 161.75 ± 26.50
CCCCCCCCCCN(CCCCCCCCCC)C(=O)CCCCCCCN(CCCCCCCC(=O)N(CCCCCCCCCC)CCCCCCCCCC)[C@@H]1CC[C@@H](O)C1 (racemic) [(rac)-(1RS, 3RS) I-14, 8,8′-(((1r,3r)-3-hydroxycyclopentyl)azanediyl)bis(N,N-didecyloctanamide); 8,8′-(((1s,3s)-3-hydroxycyclopentyl)azanediyl)bis(N,N-didecyloctanamide)] | 11.48 ± 1.87 | 45.96 ± 11.03
CCCCCCCCCCN(CCCCCCCCCC)C(=O)CCCCCCCN(CCCCCCCC(=O)N(CCCCCCCCCC)CCCCCCCCCC)[C@@H]1CC[C@H](O)C1 (racemic) [(rac)-(1RS, 3SR) I-14, 8,8′-(((1r,3s)-3-hydroxycyclopentyl)azanediyl)bis(N,N-didecyloctanamide); 8,8′-(((1s,3r)-3-hydroxycyclopentyl)azanediyl)bis(N,N-didecyloctanamide)] | 15.74 ± 5.71 | 66.16 ± 16.66
CCCCCCCCCCN(CCCCCCCCCC)C(=O)CCCCCCCN(CCCCCCCC(=O)N(CCCCCCCCCC)CCCCCCCCCC)[C@@H]1CCC[C@H]1O [(1R, 2R) I-48, 8,8′-(((1r,2r)-2-hydroxycyclopentyl)azanediyl)bis(N,N-didecyloctanamide)] | 25.27 ± 7.50 | 92.5 ± 20.18
CCCCCCCCCCN(CCCCCCCCCC)C(=O)CCCCCCCN(CCCCCCCC(=O)N(CCCCCCCCCC)CCCCCCCCCC)[C@@H]1CCC[C@@H]1O [(1R, 2S) I-48, 8,8′-(((1r,2s)-2-hydroxycyclopentyl)azanediyl)bis(N,N-didecyloctanamide)] | 28.32 ± 8.81 | –
CCCCCCCCCCN(CCCCCCCCCC)C(=O)CCCCCCCN(CCCCCCCC(=O)N(CCCCCCCCCC)CCCCCCCCCC)[C@H]1C[C@H](O)C1 [(1R, 3R) I-5, 8,8′-(((1R,3R)-3-hydroxycyclobutyl)azanediyl)bis(N,N-didecyloctanamide)] | 44.52 ± 9.89 | 215.61 ± 28.80
CCCCCCCCCCN(CCCCCCCCCC)C(=O)CCCCCCCN(CCCCCCCC(=O)N(CCCCCCCCCC)CCCCCCCCCC)[C@@H]1CCC[C@@H](O)C1 [(1R, 3R) I-17, 8,8′-(((1R,3R)-3-hydroxycyclohexyl)azanediyl)bis(N,N-didecyloctanamide)] | 27.97 ± 3.37 | 178.14 ± 33.27
CCCCCCCCCCN(CCCCCCCCN(CCCCCCCCN(CCCCCCCCCC)C(=O)CCCCCCCCC)C[C@H]1C[C@H](O)C1)C(=O)CCCCCCCCC [(1R, 3R) I-22, N,N′-(((((1R,3R)-3-hydroxycyclobutyl)methyl)azanediyl)bis(octane-8,1-diyl))bis(N-decyldecanamide)] | 19.88 ± 2.53 | –
CCCCCCCCCCN(CCCCCCCCCC)C(=O)CCCCCCCN(CCCCCCCC(=O)N(CCCCCCCCCC)CCCCCCCCCC)[C@H]1C[C@H](CO)C1 [(1R, 3R) I-24, 8,8′-(((1R,3R)-3-(hydroxymethyl)cyclobutyl)azanediyl)bis(N,N-didecyloctanamide)] | 6.93 ± 2.48 | 19.77 ± 5.43
CCCCCCCCCCN(CCCCCCCCCC)C(=O)CCCCCCCN(CCCCCCCC(=O)N(CCCCCCCCCC)CCCCCCCCCC)[C@H]1CC[C@H](O)CC1 [(1R, 4R) I-9, 8,8′-(((1R,4R)-4-hydroxycyclohexyl)azanediyl)bis(N,N-didecyloctanamide)] | 45.52 ± 6.25 | 204.57 ± 48.15
CCCCCCCCCCN(CCCCCCCCCC)C(=O)CCCCCCCN(CCCCCCCC(=O)N(CCCCCCCCCC)CCCCCCCCCC)[C@H]1CC[C@H](CO)CC1 [(1R, 4R) I-23, 8,8′-(((1R,4R)-4-(hydroxymethyl)cyclohexyl)azanediyl)bis(N,N-didecyloctanamide)] | 5.15 ± 1.83 | 37.79 ± 6.41
CCCCCCCCCCN(CCCCCCCCCC)C(=O)CCCCCCCN(CCCCCCCC(=O)N(CCCCCCCCCC)CCCCCCCCCC)[C@H]1CC[C@](C)(O)CC1 [(1R, 4R) I-25, 8,8′-(((1R,4R)-4-hydroxy-4-methylcyclohexyl)azanediyl)bis(N,N-didecyloctanamide)] | 14.03 ± 2.71 | 105.77 ± 19.44
CCCCCCCCCCN(CCCCCCCCN(CCCCCCCC(=O)N(CCCCCCCCCC)CCCCCCCCCC)[C@H]1CC[C@H](O)CC1)C(=O)CCCCCCCCC [(1R, 4R) I-47, N-decyl-N-(8-((8-(didecylamino)-8-oxooctyl)((1r,4r)-4-hydroxycyclohexyl)amino)octyl)decanamide] | 16.24 ± 2.93 | –
CCCCCCCCCCN(CCCCCCCCCC)C(=O)C(F)CCCCCCN(CCCCCCC(F)C(=O)N(CCCCCCCCCC)CCCCCCCCCC)[C@H]1CC[C@H](O)CC1 (stereo partly drawn) [(1R, 4R) I-49, 8,8′-(((1r,4r)-4-hydroxycyclohexyl)azanediyl)bis(N,N-didecyl-2-fluorooctanamide)] | 28.94 ± 13.21 | 161.09 ± 11.20
CCCCCCCCCCN(CCCCCCCCCC)C(=O)CCCCCCCN(CCCCCCCC(=O)N(CCCCCCCCCC)CCCCCCCCCC)[C@H]1CCC[C@H]1O [(1S, 2R) I-15, 8,8′-(((1S,2R)-2-hydroxycyclopentyl)azanediyl)bis(N,N-didecyloctanamide)] | 33.97 ± 18.40 | 225.79 ± 54.78
CCCCCCCCCCN(CCCCCCCCCC)C(=O)CCCCCCCN(CCCCCCCC(=O)N(CCCCCCCCCC)CCCCCCCCCC)[C@H]1CCCC[C@H]1O [(1S, 2R) I-16, 8,8′-(((1S,2R)-2-hydroxycyclohexyl)azanediyl)bis(N,N-didecyloctanamide)] | 19.42 ± 7.21 | 88.40 ± 26.36
CCCCCCCCCCN(CCCCCCCCCC)C(=O)C(F)CCCCCCN(CCCCCCC(F)C(=O)N(CCCCCCCCCC)CCCCCCCCCC)CC[C@H]1C[C@@H](O)C1 (stereo partly drawn) [(1S, 3R) I-19, 8,8′-((2-((1S,3R)-3-hydroxycyclobutyl)ethyl)azanediyl)bis(N,N-didecyl-2-fluorooctanamide)] | 30.68 ± 8.05 | 267.70 ± 45.90
